The record followed here is patent publication US20260027239A1, “cRGD -CONJUGATED IMAGING AGENT” (Curadel Surgical Innovations, Inc., priority 2022, published 2026).

Data set [1] in a line: Stability in warm buffered fetal bovine serum (normalized absorbance and absorbance spectra over time). In kind it is in vitro ADME. The note with it: 37° C. buffered FBS. As to the method:
The normalized absorbance of ZW800-1 and ZW700-1c in 37° C. buffered FBS, pH 7.4 over time from 0 to 60 hours are shown in FIGS. 2-4.

Data set [2] in a line: Stability of cRGD in serum. In kind it is in vitro ADME.

SMILES strings stand for the structures.

Take `CC1(C)C(/C=C/C(=C/C=C2/N(CCC[N+](C)(C)C)c3ccc(S(=O)(=O)[O-])cc3C2(C)C)c2ccc(CCC(=O)[O-])cc2)=[N+](CCC[N+](C)(C)C)c2ccc(S(=O)(=O)[O-])cc21` [ZW700-1c]: the “stability, changes in absorption spectra during metabolism in warm serum” value in data set [1] (pH 7.4, 0 to 48 hours, compared to ZW800-1 (FIGS. 5-6)) is recorded as “high stability”. In addition, the “stability, normalized absorbance over time” value in data set [1] (pH 7.4, 0 to 60 hours, compared to ZW800-1 (FIGS. 2-4)) is recorded as “extreme stability”.
On to `N=C(N)NCC[C@@H]1NC(=O)[C@H](CCCCN)NC(=O)[C@@H](Cc2ccc(O)cc2)NC(=O)[C@H](C(=O)O)NC(=O)CNC1=O` [cRGD], for which the stability in serum result in data set [2] is “stable in serum for days”.
